Data published in patent publication EP4624457A1, “I[…] DERIVATIVES, I[…] NEURODEGENERATIVE DISEASES” (Centre National de la Recherche Scientifique, priority 2024, dated 2025).
Several values for one entry are separate records, joined by “and”; a condition that tells them apart may be missing. Equal values may be shown once. Read-outs that look alike come from different tables or passages of the source.

Biological target: T1, human α7 nAChR subtype (Homo sapiens, UniProt P36544)
T1 construct: expressed in transfected cells; host or cells: Xenopus laevis oocytes injected with mRNA
Experiment: Two-electrode voltage clamp electrophysiology on Xenopus laevis oocytes expressing the α7 nAChR
Assay type: cell-based
Details: for IC50: antagonistic activity, TEVC, value (95% CI), 100 µM ACh, 45 s preincubation, Figures 5 and 7
Source text: The emerging cyclic imines toxins (CiTXs) of global distribution across coastal environments that are produced by dinoflagellates move fast up the human food chain through shellfish. The CiTX family includes 44 compounds: 7 gymnodimines (A-E, 12-methylgymnodimine and 16-desmethyl gymnodimine D), 16 spirolides (A-D, G-I, 13-desmethyl spirolide-C, 27-Hydroxy-13-desmethyl spirolide-C, 13,19-didesmethyl spirolide-C, 20-hydroxy-13,19-didesmethyl spirolide- C, 27-hydroxy-13,19-spirolide-C, 27-Oxo-13,19-didesmethyl spirolide-C, 13-desmethyl spirolide-D, 20-hydroxy-13,19-didesmethyl spirolide-D and 20-methyl spirolide-G), 8 pinnatoxins (A-H), 3 pteriatoxins (A-C), 6 prorocentrolides (A-B, 4- hydroxyprorocentrolide, 9,51-dihydro prorocentrolide, 30-sulfate prorocentrolide and 14-O-acetyl-4-hydroxyprorocentrolide), 1 spiroprorocentrimine, 2 portimines (A and B), and 1 kabirimine, (Aráoz et al. (2020) Cyclic imine toxins survey in coastal european shellfish samples: Bioaccumulation and mode of action of 28-O-palmitoyl ester of pinnatoxin-G. First report of portimine-A bioaccumulation. Harmful Algae, 98 [1]). The spiroimine moiety is the major feature characterizing cyclic imine toxins. The exception to this rule is prorocentrolides in which a hexahydroisoquinoline group replaces the spiroimine motif, (Torigoe et al. (1988) Prorocentrolide, a toxic nitrogenous macrocycle from a marine dinoflagellate, Prorocentrum-lima. Journal of the American Chemical Society, 110:7876-7877 [2]). Portimines display a 5-membered cyclic imine ring; gymnodimines, prorocentrolides, spiroprorocentrimines and kabirimine present a 6-membered imine ring, while spirolides, pinnatoxins and pteriatoxins display a 7-membered imine ring. Cyclic imine toxins are fast acting neurotoxins that, when administered intraperitoneally or by gavage at lethal doses, kill mice by respiratory arrest within minutes following blockade of neuromuscular nicotinic acetylcholine receptors (nAChR). The mode of action of several cyclic imines on nAChRs has been characterized, namely: gymnodimine-A, 13- desmethyl spirolide- C, 13,19-didesmethyl spirolide-C, 20-methyl spirolide-G, pinnatoxin-A, pinnatoxin-G, prorocentrolide-A and portimine, (Lamoise et al. (2017) Physico-chemical and functional characterization of portimine purified from Vulcanodinium rugosum strain IFR-VRU-01. In "Marine and Fresh-Water Harmful Algae". Proceedings of the 17th International Conference on Harmful Algae (Proença, L.A.O. and Hallegraeff, G. eds) pp. 126-129 ISSHA and IOC/UNESCO, Florianapolis; Molgó et al. (2017) Cyclic imine toxins from dinoflagellates: a growing family of potent antagonists of the nicotinic acetylcholine receptors. Journal of Neurochemistry, 142:41-51 [4]). They are potent antagonists of muscular and neuronal nicotinic acetylcholine receptors with pinnatoxin-A displaying picomolar affinities towards the α7 nicotinic acetylcholine receptor subtype (Aráoz et al. (2011) Total synthesis of pinnatoxins A and G and revision of the mode of action of pinnatoxin A. Journal of the American Chemical Society 133(27):10499-10511 [5]). In contrast, prorocentrolide and portimine show micromolar affinities towards the α7 nicotinic acetylcholine receptor subtype (Lamoise et al. (2017), Stivala et al. (2015) Synthesis and biology of cyclic imine toxins, an emerging class of potent, globally distributed marine toxins. Natural Product Reports, 32(3):411-435 [6]) (Table1). Table 1. Antagonistic activity of CiTX (Two-Electrodes Voltage Clamp electrophysiology).
• Figure 1 represents the chemical structure of ingrilimine according to compound (Illa) formula. • Figure 2 represents the cytotoxic activity of ingrilimine. A2780 ovarian and HT29 colorectal carcinoma cells were grown in RPMI 1640 supplemented with 10% fetal calf serum (FCS) and 1% glutamine. […]

T1 sequence (P36544 23-502): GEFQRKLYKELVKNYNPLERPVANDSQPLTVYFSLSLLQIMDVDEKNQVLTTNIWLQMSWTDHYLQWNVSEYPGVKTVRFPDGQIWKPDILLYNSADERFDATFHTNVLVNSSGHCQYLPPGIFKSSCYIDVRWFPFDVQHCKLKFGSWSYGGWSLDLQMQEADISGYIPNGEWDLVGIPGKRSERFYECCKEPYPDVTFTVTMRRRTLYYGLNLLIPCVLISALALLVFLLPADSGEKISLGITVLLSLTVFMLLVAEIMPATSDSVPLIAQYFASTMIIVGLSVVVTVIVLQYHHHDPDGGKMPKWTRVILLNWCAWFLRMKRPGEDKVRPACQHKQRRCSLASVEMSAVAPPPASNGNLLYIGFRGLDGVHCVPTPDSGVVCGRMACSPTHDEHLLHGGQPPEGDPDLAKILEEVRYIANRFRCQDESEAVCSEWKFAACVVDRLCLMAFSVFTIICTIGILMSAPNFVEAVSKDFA

Compound | peak amplitude relative to the peak amplitude evoked by 100 µM ACh (agonist activity, 10 µM ingrilimine) [%] | behaviour at micromolar concentrations (micromolar concentrations, antagonist at nanomolar concentrations) | IC50 (nAChR subtype (nM; 95% CI) α7 (human)) | times more potent than portimine against the human α7 nAChR subtype (ratio of IC50 values) | IC50 (read-out: nAChR subtype (nM; 95% CI) α7 (human)) [nM]
C=CC1=C[C@@H]2C[C@@H](O)[C@@H](O)/C(C)=C/C/C(C)=C/CCC3=NCCC[C@]32CC1 [Ingrilimine, ingrilimine] | -25 | behaves as an agonist | 2.3 nM and 2.29 nM | ~ 10 000 times | 
C=CC1=C[C@@H]2[C@@H]3O[C@]4(CC[C@H](O4)[C@@H](C)C[C@@H](O)C3=O)C[C@H](O)C3=NCC[C@@]32CC1 [Portimine-A] |  |  |  |  | 21200
